# Data taken from paper PMC5635289, “Differential Effects of Angelicin Analogues on NF-κB Activity and IL-8 Gene Expression in Cystic Fibrosis IB3-1 Cells” (Mediators of Inflammation, 2017).
# What was measured:
# IL-8 mRNA = test: RT-qPCR quantification of IL-8 mRNA in TNF-α-induced IB3-1 cells; format: cell-based, human; details: for inhibition at 1 µM / inhibition at 10 µM: Homo sapiens, IB3-1, 24 h, TNF-α-induced IB3-1 cells, RT-qPCR, na = not active at the used concentrations; for inhibition at 1 µM: 1 μM compound; for inhibition at 10 µM: 10 μM compound; for Inhibition of IL-8 expression (range given): IB3-1 cells, low concentrations (1–10 μM), concentration not specified per value
# Method: Monolayers of 60% confluent IB3-1 cells were seeded in 6- or 12-well plates in LHC-8 medium in the presence of 5% FBS. After 24 h, pure derivatives were added, 5 h before stimulation with TNF-α 80 ng/ml (ORF Genetics, Kopavogur, Iceland), and incubated for a further 24 h. Total RNA was extracted using TRIzol Reagent (Sigma-Aldrich, St. Louis, MO) following the manufacturer's instructions. Reverse transcription (RT) was performed using Reverse Transcription System kit (Promega, Madison, WI): 1 μg of total RNA was reverse transcribed in the presence of 5 mM MgCl2, 1X reverse transcription buffer (10 mM Tris-HCl, 50 mM KCl, and 0.1% Triton X-100), 1 mM each dNTPs, 20 U recombinant Rnasin Ribonuclease Inhibitor, 15 U AMV Reverse Transcriptase, and 0.5 μg oligo(dT)15 primers in a total volume of 20 μl for 10 min at 70°C and 60 min at 42°C. The resulting cDNA was quantified by relative quantitative real-time PCR (real-time qPCR). For real-time qPCR, 1 μl of cDNA was used for each SYBR Green reaction to quantify the relative expression of IL-8. Each 25 μl of total reaction volume contained 1 μl of cDNA, 10 pmol of primers, 1 iQTM SYBR Green Supermix (Bio-Rad Laboratories Inc., Hercules, CA). Real-time PCRs were performed for a total of 40 cycles (denaturation, 95°C for 10 s; annealing, 68°C for 30 s for IL-8, 65°C for 30 s for IL-6; elongation, 72°C for 60 s) using an iCycler IQ5 (Bio-Rad Laboratories Inc., Hercules, CA). Primer sequences were as follows: IL-8 forward: 5′-GTGCAGTTTTGCCAAGGAGT-3′ and IL-8 reverse: 5′-TTATGAATTCTCAGCCCTCTTCAAAAACTTCTC-3′. The relative proportions of each amplified template were determined utilizing the threshold cycle (CT) value for each performed PCR. The DDCt method was used to compare gene expression data. Each sample was quantified in duplicate. Changes in mRNA expression level were calculated following normalization with the GAPDH calibrator gene (housekeeping gene) and expressed as fold change over untreated samples [24]. Duplicates of negative controls (no template cDNA) were also run with every experimental plate to assess specificity and indicate potential contamination.
# With the aim to study the effective anti-inflammatory properties of these new psoralen derivatives, we decided to further characterize the TMA derivatives for their potential activities on the expression of IL-8 gene, known to be involved in the lung inflammatory process in CF. […] More specifically, we were first interested in identifying compounds with low antiproliferative activity, but effective in downmodulating inflammatory gene expression without achieving a full suppression of these genes. We therefore employed IB3-1 cystic fibrosis cells, incubated for 5 h with two concentrations (1 μM and 10 μM) of selected compounds, and then treated with TNF-α ([…]). In the IB3-1 cystic fibrosis cellular model, NF-κB-dependent genes, including the gene encoding for the proinflammatory protein IL-8, generally are activated following infection with P. aeruginosa or treatment with TNF-α or IL-1β [26, 28, 31]. This feature is very important in the pathophysiology of CF, since several clinical complications are caused by exacerbation of this inflammatory response. After 1 day of incubation, cellular RNA was isolated for RT-qPCR analysis. All the TMA analogues found to be active in inhibiting NF-κB/DNA interactions were analyzed for their effects on inhibition of TNF-α-induced accumulation of IL-8 mRNA.
# IB3-1 cells = test: Cell proliferation assay on IB3-1 cells; format: cell-based; details: Homo sapiens, cell number/ml after 48 h of treatment
# Method: Monolayers of 60% confluent IB3-1 cells were seeded in 24- or 12-well plates in LHC-8 medium in the presence of 5% FBS. After 24 h, TMA derivatives were added at serial dilutions and incubated for further 2-3 days. The effects of compounds (TMA derivatives) on the cell proliferation were analyzed as elsewhere described. A first analysis was performed with serial dilutions to obtain 50 μM, 200 μM, and 800 μM solutions. In order to determine IC50 values, the following concentrations were used 12.5, 25, 50, 100, 200, and 800 μM. In order to prepare the cells for counting, they were washed with PBS 1X and detached with trypsin/EDTA. Cells were suspended in physiological solution and counted with a Z2 Coulter Counter (Coulter Electronics, Hialeah, FL, USA). The cell number/ml was determined as IC50 after 2 days of culture, when untreated cells are in log phase of cell growth.
# In order to obtain preliminary information on the biological properties of TMA derivatives, their effects on cell growth were examined on IB3-1 cell line, excellent biological model to study new potential anti-inflammatory molecules. The use of this cell line to study the expression of proinflammatory molecules under a variety of stimuli is well established. Monolayers of 60% confluent IB3-1 cells were seeded in 12-well plate in LHC-8 medium with 5% FBS. After 24 h, compounds were added at different concentrations and the cell number/ml was determined after further 48 h of culture.
# NF-κB p50 [1] = molecular target: T1, NF-κB p50 (Homo sapiens, UniProt P19838); test: EMSA, inhibition of NF-κB/DNA interactions; format: binding; details: for Inhibition of NF-κB/DNA complex (MIC): NF-κB p50 and 32P-labeled NF-κB oligonucleotide, MIC = minimal inhibitory concentration, 12.5 μM was the lowest concentration used
# T1 construct: This assay was performed using purified NF-κB p50; purchased Promega
# T1 sequence (P19838 1-433 limits assumed): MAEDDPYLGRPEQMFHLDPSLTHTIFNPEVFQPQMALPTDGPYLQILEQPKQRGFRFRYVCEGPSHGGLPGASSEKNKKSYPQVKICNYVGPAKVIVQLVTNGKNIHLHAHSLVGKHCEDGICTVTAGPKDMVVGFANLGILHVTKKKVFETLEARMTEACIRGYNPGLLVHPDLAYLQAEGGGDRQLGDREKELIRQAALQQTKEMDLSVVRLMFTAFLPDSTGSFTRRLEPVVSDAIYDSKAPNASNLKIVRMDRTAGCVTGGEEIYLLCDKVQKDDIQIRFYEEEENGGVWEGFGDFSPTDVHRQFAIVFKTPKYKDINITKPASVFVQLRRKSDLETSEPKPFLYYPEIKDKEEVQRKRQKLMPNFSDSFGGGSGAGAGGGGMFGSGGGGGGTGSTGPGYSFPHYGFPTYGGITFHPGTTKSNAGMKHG
# Method: Electrophoretic mobility shift assays were performed using double-stranded ^32P-labeled oligonucleotides as target DNA. Binding reactions were set up as previously described in binding buffer (10% glycerol, 0.05% NP-40, 10 mM Tris-HCl pH 7.5, 50 mM NaCl, 0.5 mM DTT, and 10 mM MgCl2), in the presence of 0.1 μl/20 μl of NF-κB p50 (50 gsu) (Promega, Madison, WI, USA) and 0.25 ng of labeled oligonucleotide, in a total volume of 20 μl. After 30 min binding at room temperature, samples were electrophoresed at constant voltage (200 V for 30 min) through a low ionic strength (0.25 TBE buffer) (1 TBE/40.089 M Tris-borate, 0.002 M EDTA) on 6% polyacrylamide gels until the tracking dye (bromophenol blue) reached the bottom of a 16 cm slab. Gels were dried and exposed for autoradiography with intensifying screens at […]. In these experiments, DNA/protein complexes migrate through the gel with slower efficiency. In studies on the inhibitors of protein/DNA interactions, addition of the reagents was as follows: (i) nuclear factors, (ii) active principles, (iii) binding buffer, and (iv) labeled oligonucleotides mimicking the binding sites for TF to be modulated. The nucleotide sequence of double-stranded target DNA utilized in these experiments was 5′-CGC TGG GGA CTT TCC ACG G-3′ (sense strand, NF-κB). The synthetic oligonucleotides utilized in this study were purchased from Sigma Genosys (Sigma Genosys, Cambs, UK). To calculate the effective concentrations, three different autoradiograms obtained from different time exposures were scanned and compared to control EMSA performed without addition of angelicin analogues (two independent experiments were performed).
# The effects of TMA derivatives on NF-κB- (nuclear factor-kappaB-) mediated induction of proinflammatory genes was verified first in vitro by electrophoretic mobility shift assay (EMSA) with the aim to verify and quantify the possible inhibition of NF-κB/DNA interactions. This assay was performed using purified NF-κB p50 and ^32P-labeled target NF-κB double-stranded oligonucleotide mimicking the NF-κB consensus sequence present within the IL-8 gene promoter.
# NF-κB p50 [2] = molecular target: T1, NF-κB p50; design: method as in PMID 21148790; details: previous studies; cited from earlier work
smiles,measurement,setting,value
O=c1cc(CO)c2ccc3sccc3c2o1 [Compound 16],inhibition at 1 µM,IL-8 mRNA,18%
same,inhibition at 10 µM,IL-8 mRNA,21%
same,IC50,IB3-1 cells,> 800 µM
same,Inhibition of NF-κB/DNA complex (MIC),NF-κB p50 [1],25 to 50 µM
Cc1cc(=O)oc2c1ccc1oc(CN)cc12 [Compound 26],inhibition at 1 µM,IL-8 mRNA,55%
same,inhibition at 10 µM,IL-8 mRNA,83%
same,Inhibition of IL-8 expression (range given),IL-8 mRNA,52–83%
same,IC50,IB3-1 cells,90.8 µM
same,Inhibition of NF-κB/DNA complex (MIC),NF-κB p50 [1],50 to 100 µM
Cc1oc2c(cc(C)c3occ(C)c32)c(=O)c1C [Compound 27],inhibition at 1 µM,IL-8 mRNA,16%
same,IC50,IB3-1 cells,> 800 µM
same,Inhibition of NF-κB/DNA complex (MIC),NF-κB p50 [1],<12.5 (^∗) μM
Cc1c(C)c2cc(C)c3occc3c2oc1=O [Compound 28],inhibition at 1 µM,IL-8 mRNA,21%
same,inhibition at 10 µM,IL-8 mRNA,36%
same,IC50,IB3-1 cells,> 800 µM
same,Inhibition of NF-κB/DNA complex (MIC),NF-κB p50 [1],12.5 to 25 µM
Cc1coc2c1c1occ(C)c1c1oc(=O)cc(C)c21 [Compound 29],inhibition at 10 µM,IL-8 mRNA,12%
same,IC50,IB3-1 cells,> 800 µM
same,Inhibition of NF-κB/DNA complex (MIC),NF-κB p50 [1],<12.5 (^∗) μM
Cc1cc2c(o1)c1cc(C)oc1c1c(C)cc(=O)oc21 [Compound 30],inhibition at 1 µM,IL-8 mRNA,10%
same,IC50,IB3-1 cells,> 800 µM
same,Inhibition of NF-κB/DNA complex (MIC),NF-κB p50 [1],12.5 to 25 µM
Cc1coc2c1c(C)cc1oc(=O)cc(C)c12 [Compound 32],inhibition at 1 µM,IL-8 mRNA,73%
same,inhibition at 10 µM,IL-8 mRNA,52%
same,IC50,IB3-1 cells,> 800 µM
same,Inhibition of NF-κB/DNA complex (MIC),NF-κB p50 [1],<12.5 (^∗) μM
Cc1cc2c(C)cc3oc(=O)cc(C)c3c2o1 [Compound 33],inhibition at 1 µM,IL-8 mRNA,66%
same,inhibition at 10 µM,IL-8 mRNA,67%
same,Inhibition of IL-8 expression (range given),IL-8 mRNA,52–83%
same,IC50,IB3-1 cells,> 800 µM
same,Inhibition of NF-κB/DNA complex (MIC),NF-κB p50 [1],12.5 to 25 µM
Cc1oc2c(c(C)cc3oc(=O)cc(C)c32)c1C [Compound 34],inhibition at 1 µM,IL-8 mRNA,68%
same,inhibition at 10 µM,IL-8 mRNA,47%
same,IC50,IB3-1 cells,> 800 µM
same,Inhibition of NF-κB/DNA complex (MIC),NF-κB p50 [1],<12.5 (^∗) μM
Cc1cc2c(C)cc(=O)oc2c2c1OCC=C2 [Compound 35],inhibition at 1 µM,IL-8 mRNA,56%
same,inhibition at 10 µM,IL-8 mRNA,37%
same,IC50,IB3-1 cells,137 µM
same,Inhibition of NF-κB/DNA complex (MIC),NF-κB p50 [1],25 to 50 µM
Cc1cc2oc(=O)cc(C)c2c2c1C=CCO2 [Compound 36],inhibition at 1 µM,IL-8 mRNA,77%
same,inhibition at 10 µM,IL-8 mRNA,74%
same,IC50,IB3-1 cells,> 800 µM
same,Inhibition of NF-κB/DNA complex (MIC),NF-κB p50 [1],12.5 to 25 µM
C=CCc1c(O)c(C)cc2c(CO)cc(=O)oc12 [Compound 38],inhibition at 1 µM,IL-8 mRNA,36%
same,inhibition at 10 µM,IL-8 mRNA,81%
same,Inhibition of IL-8 expression (range given),IL-8 mRNA,52–83%
same,IC50,IB3-1 cells,506 µM
same,Inhibition of NF-κB/DNA complex (MIC),NF-κB p50 [1],25 µM
"Cc1cc(=O)oc2c1cc(C)c1occ(C)c12 [TMA, 4,6,4′-trimethylangelicin, reference compound]",Concentration inhibiting NF-κB/DNA interactions in EMSA,NF-κB p50 [2],100 µM
same,IC50,IB3-1 cells,185 ± 30 µM
same,Effect on NF-κB/DNA interactions at 100 μM,NF-κB p50 [1]; 100 μM compound,able to suppress NF-κB/DNA interactions
same,Inhibition of NF-κB/DNA complex (MIC),NF-κB p50 [1],higher than 20 μM
